Experimental findings from patent US8207206B2, “(S,R)-3-phenyl-4,5 dihydro-5-isoxazole acetic acid-nitric oxide and use thereof as anti-cancer and antiviral agent” (OncoNOx APS, priority 2007, dated 2012) are described below.

Test [1] concerns C6 cells. The test is described as follows: ROS measurement by DHR fluorescence (flow cytometry). Format: cell-based, rat. The note with it: C6, 25 μg/ml, 24 h. The procedure: The cells grown in the 6-well plate were stained with 1 μM dihydrorhodamine 123 (DHR) 20 min before the treatment with the test compound. At the end of the cultivation period the cells were detached, washed and resuspended in PBS. Analysis of ROS release was performed with a FACSCalibur and analyzed using CellQuest Pro software (Kaludjerovic 2005).
(In general: In flow cytometry, cells or beads pass a laser one at a time.)

A further test concerns L929 cells. The test can be described thus: LDH release assay (cell death). Format: cell-based, mouse. To be noted: L929, dose-dependent (24 h) and time-dependent (25 μg/ml), significant after 18 h. The procedure:
(§1) As a marker of necrotic cell death, the release of intracellular enzyme LDH, which mediates the conversion 2,4-dinitrophenylhydrazine into visible hydrazone precipitate in the presence of pyruvate, was measured. The cells were seeded in flat-bottom 96-well plates as indicated above and the assay was performed after 24 h incubation, as previously described (Decker et al). The percentage of dead cells was determined using the following formula: [(E−C)/(T−C)]×100, wherein E is the experimental absorbance of treated cultures measured at 492 nm, C is the absorbance of supernatants of control untreated cells, and T is the absorbance corresponding to the maximal (100%) LDH release of Triton-lysed cells. Cell cycle analysis and apoptosis detection were carried out exactly as described in the literature (Mijatovic CMLS 2005). Acidic vesicular organelles, which characterise autophagy, are stained by vital dye acridin orange. The intensity of red fluorescence is proportional to the acidity and volume of the organelles, while the cytoplasm and nucleolus emits bright green and dim red (Kanzawa 2004). […] Green (510-530 nm) and red (>650 nm) fluorescence emission from 10^4 cells illuminated with blue (488 nm) excitation light was measured with a FACS Calibur and analyzed using CellQuest software.
Background: LDH leaks from cells whose membrane has failed.

In another test the test system is B16 melanoma. The test can be described thus: B16 melanoma in C57BL/6 mice, treatment with GIT27-NO. Format: in vivo. The procedure: Primary tumors were induced by subcutaneous (s.c) injection of 2×10^5 B16 melanoma cells in the dorsal right lumbosacral region of syngeneic C57BL/6 mice. […] GIT27-NO was prepared immediately before treatment and was applied i.p. at a dose of 0.5 mg/mouse for 14 consecutive days. The animals were observed until day 30, then sacrificed and tumor growth was determined by three-dimensional measurements of individual tumors from each mouse. Tumor volume was calculated using the following formula: [0.52×a×b^2], where a is the longest and b is the shortest diameter (Smagur et al).

In test [2] the test system is MAP kinases (p38 MAPK, ERK, JNK) in L929 cells. The test can be described thus: Cell-based ELISA for activation of MAP kinases. Details: species or system mouse. To be noted: L929, 25 μg/ml, time course. The procedure:
(§2) Activation of MAP kinases (p38 MAPK, extracellular signal-regulated kinase—ERK, and Jun-N-terminal kinase—JNK) or nuclear factor-κB (NF-κB) was determined by means of a slightly modified method of cell-based ELISA by Versteeg et al. (Versteeg 2000). Since MAP kinases are activated by phosphorylation, and phosphorylation of the inhibitory subunit IκB is a necessary step for NF-κB activation, we used antibodies specific for phosphorylated forms of MAP kinases (p-p38, p-ERK and p-JNK) and IκB (p-IκB). The cells were grown overnight in 96-well flat-bottom plates in a culture medium containing 0.5% FCS and then treated with the test compound diluted in conventional culture medium. At the end of treatment period the cells were fixed in 4% parformaldehyde, endogenous peroxydase was quenched with 1% H2O2 in PBS containing 0.1% Triton X-100 (PBST), and unspecific binding of antibodies was blocked with a PBST solution containing 10% FCS. Primary mouse monoclonal antibodies specific for rat/mouse p-ERK, p-p38, p-JNK, p-IκB (1:200; all from Santa Cruz Biotechnology, Santa Cruz, Calif.) were applied in PBST supplemented with 2% bovine serum albumine (PBSTB), followed by secondary peroxidase-conjugated goat anti-mouse IgG (1:2500 in PBSTB; USB corporation, Cleveland, Ohio) for anti-p-ERK, anti-p-JNK and anti-p-IκB, or anti-mouse IgM (1:4000; USB corporation) for detection of anti-p-p38. Incubation with antibodies was carried out at 37° C. for 1 h. After 15 min incubation with peroxydase substrate TMB and subsequent addition of 0.1 M HCl, the absorbance at 450 nm was measured in an automated microplate reader. To enable comparison between treatment and control, the resulting absorbances were corrected for the cell number determined by crystal violet staining, as described in the original protocol. The results are presented as relative expression in comparison with the control value, which was arbitrarily set to 1.
Background: ELISA stands for enzyme-linked immunosorbent assay.

For test [3], the system named is MAP kinases (p38 MAPK, ERK, JNK) in B16 cells. The test is described as follows: Cell-based ELISA for activation of MAP kinases. To be noted: B16, 25 μg/ml, time course. Also noted: species or system mouse. The procedure: as §2
The subject of a further test is B16 cells. The test is described as follows: LDH release assay (cell death). The class given is cell-based, mouse. To be noted: B16, dose-dependent (24 h) and time-dependent (25 μg/ml), significant after 18 h. The procedure:
As a marker of necrotic cell death, the release of intracellular enzyme LDH, which mediates the conversion 2,4-dinitrophenylhydrazine into visible hydrazone precipitate in the presence of pyruvate, was measured. […] The percentage of dead cells was determined using the following formula: [(E−C)/(T−C)]×100, wherein E is the experimental absorbance of treated cultures measured at 492 nm, C is the absorbance of supernatants of control untreated cells, and T is the absorbance corresponding to the maximal (100%) LDH release of Triton-lysed cells. Cell cycle analysis and apoptosis detection were carried out exactly as described in the literature (Mijatovic CMLS 2005). Acidic vesicular organelles, which characterise autophagy, are stained by vital dye acridin orange. The intensity of red fluorescence is proportional to the acidity and volume of the organelles, while the cytoplasm and nucleolus emits bright green and dim red (Kanzawa 2004). For the detection of autophagy the cells were cultivated in 6-well plates as previously described, detached and stained with 1 μg/ml acridin orange for 15 min at RT. At the end of the incubation period the cells were washed and finally resuspended in PBS. Green (510-530 nm) and red (>650 nm) fluorescence emission from 10^4 cells illuminated with blue (488 nm) excitation light was measured with a FACS Calibur and analyzed using CellQuest software.

The test system of test [4] is C6 cells. The test is described as follows: Nitrite accumulation (Griess reaction). The class given is cell-based, rat. The note with it: 24 h. The procedure:
Nitrite accumulation was measured by Griess reaction as previously described (Mijatovic et al CMLS 2004).

Test [5] has as its system C6 cells. The test can be described thus: Cell cycle analysis and apoptosis detection (PI staining, flow cytometry). The class given is cell-based, rat. The note with it: C6, 25 μg/ml, 24 h. The procedure:
as §1

Structures are written as SMILES. Where only a bound is given, the exact number is not on record here.

Turning to `N#Cc1c(COC(=O)CC2CC(c3ccccc3)=NO2)no[n+]1[O-]` (racemic) [GIT27-NO, (S,R)-3-phenyl-4,5 dihydro-5-isoxazole acetic acid-nitric oxide], the “intracellular production of ROS (DHR fluorescence)” value in the test on C6 cells [1] is listed as “markedly increased”. Moreover, in the test on L929 cells, the LDH release result is “induced LDH release”. The “tumor growth compared to untreated control animals” value in the test on B16 melanoma (B16 melanoma, 0.5 mg/mouse/day from day 10) is “significant reduction of tumor growth”. Further, the “survival during follow-up period” value in the test on B16 melanoma (B16 melanoma, 30 days follow-up, 2 animals died in control group) was “survived 30 days”. This compound also yielded a Mean tumor volume with B16 melanoma (s.c. B16 melanoma, i.p. 0.5 mg/mouse/day from day 10, measured 30 days after implantation, control 2.97 ± 6.4, p < 0.05) of 0.82 ± 1.2. For the same compound, in test [2], the “activation of ERK1/2” value was “marked and sustained activation”; the “activation of p38” value is on record as “significant transient activation”; the “expression (activation) of JNK” value was “without affecting the expression”. Also, in test [3], the “activation of ERK1/2” value is reported as “did not affect the activation”, the “activation of JNK” value is listed as “significant time-dependent activation” and the “activation of p38” value was “only slight activation”. Moreover, the LDH release entry with B16 cells is on record as “induced LDH release”. Moreover, the “accumulation of nitrites (NO release) in culture media alone” value in the test with C6 cells [4] (in the absence of cells) is “failed to release NO and to form nitrites”. The “accumulation of nitrites in cell culture supernatants” value in the test with C6 cells [4] (in the presence of C6 cells) is “significant amount of nitrites”. Also, in the test with C6 cells [5], the cell cycle effect result is “cell cycle arrest in G0/G1 phase” and the “percentage of cells in subG compartment (hypodiploid cells)” value was less than 10%.
